Source: ChEMBL document CHEMBL1201862, “PubChem BioAssay data set” (2004)
Calls of active or inactive are those of the source.

Tests used:
[1] = molecular target: T1, Alkaline phosphatase, tissue-nonspecific isozyme (Homo sapiens, UniProt P05186)
T1 sequence (P05186 whole entry): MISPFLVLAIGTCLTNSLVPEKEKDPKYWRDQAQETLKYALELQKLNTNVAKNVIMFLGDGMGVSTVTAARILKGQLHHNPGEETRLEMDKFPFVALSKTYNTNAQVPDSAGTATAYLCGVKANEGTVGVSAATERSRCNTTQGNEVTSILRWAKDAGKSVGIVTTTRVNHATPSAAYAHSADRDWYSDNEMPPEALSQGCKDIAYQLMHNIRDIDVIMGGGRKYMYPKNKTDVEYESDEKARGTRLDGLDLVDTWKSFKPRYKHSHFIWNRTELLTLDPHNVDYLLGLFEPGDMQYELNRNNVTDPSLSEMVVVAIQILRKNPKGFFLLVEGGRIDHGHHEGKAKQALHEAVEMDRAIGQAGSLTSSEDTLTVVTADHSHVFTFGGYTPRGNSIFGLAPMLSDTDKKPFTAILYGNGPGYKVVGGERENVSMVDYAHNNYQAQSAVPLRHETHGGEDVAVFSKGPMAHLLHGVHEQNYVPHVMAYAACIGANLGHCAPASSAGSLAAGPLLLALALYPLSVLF

X-box-binding protein 1 = X-box-binding protein 1 (Homo sapiens, UniProt P17861); assay type: functional, Cricetulus griseus;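 note: confirmatory dose-response counter-screen serving a CHOP assay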
Cytochrome P450 2C19 = Cytochrome P450 2C19 (Homo sapiens, UniProt P33261); test: Cytochrome panel assay with activity outcomes. Panel member name: p450-cyp2c19 Compounds with AC50 equal or less than 10 uM are considered active; assay type: functional; conditions: read-out: AC50
[2] = system: Streptococcus sp. 'group A'; test: growth inhibition of control SK(-) GAS strain, dose response, counter-screen for streptokinase expression inhibitor project, luminescence, kanamycin, BacTiterGlo, confirmation (AID 1900); assay type: functional, organism-based
Streptococcus = test: Group A Streptococcus viability loss, dose response, counter-screen for streptokinase expression inhibitor project, luminescence, BacTiterGlo (AID 1915); assay type: functional, organism-based;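 note: potency for reduction of bacterial viability or growth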
Vero [3] = test: Vero cell cytotoxicity, cytotoxicity control for flavivirus capping enzyme inhibitors (AID 588742); assay type: functional; conditions: Chlorocebus sabaeus
Genome polyprotein = Genome polyprotein (dengue virus type 2, UniProt P29990); test: Dengue-2 NS5 methyltransferase inhibitors, primary screen, biochemical, confirmation dose response (AID 588689); assay type: functional
Saccharomyces cerevisiae = test: NALP1 inhibitor project selectivity study, Caspase-1/ASC signal blockade IC50 in S. cerevisiae (AID 488863); assay type: functional, organism-based
[4] = molecular target: NACHT, LRR and PYD domains-containing protein 1 (Homo sapiens, UniProt Q9C000); test: NALP1 inhibitors in yeast, dose response, luminescent (AID 488860); assay type: functional
[5] = inhibitors of firefly luciferase expression or activity, dose response, H4 neuroglioma cells, luminescence (AID 1990); assay type: functional, cell-based
[6] = Luminescence Cell-Based Dose Response HTS to Identify Inhibitors of 5'UTR Stem-Loop Driven Prion Protein mRNA Translation in H4 Neuroglioblastoma Cells. [Related pubchem assays: 1827 (Project Summary), 1813 (Primary HTS)]; assay type: functional
[7] = inhibitors of SNCA 5'UTR-driven reporter translation, confirmation, H4 neuroglioma cells, luminescence (AID 1988); assay type: functional, cell-based
[8] = THP-1 cell cytotoxicity, dose response, cytotoxicity control for non-replicating M. tuberculosis project (AID 489025); assay type: functional
[9] = HepG2 cell cytotoxicity, dose response, cytotoxicity control for non-replicating M. tuberculosis project (AID 489018); assay type: functional; conditions: Mycobacterium tuberculosis
[10] = Vero E6 cell cytotoxicity, dose response, cytotoxicity control for non-replicating M. tuberculosis project, secondary assay (AID 492998); assay type: functional, VeroE6; conditions: Vero C1008
cells = assay type: functional
[11] = Shn3 3'UTR reporter inhibitors, dose response, cell-based, Clone20 osteoblasts, firefly luciferase, cherry-picked (AID 624132); assay type: functional;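 note: firefly luciferase luminescence from reporter carrying the Shn3 3'UTR in osteoblasts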
[12] = HepG2 cell cytotoxicity, dose response, cytotoxicity control for Shn3 inhibitor project, CellTiter-Glo, cherry-picked (AID 624134); assay type: functional, cell-based
[13] = control 3'UTR Renilla luciferase suppression, dose response, counter-screen for Shn3 inhibitor project, cell-based, Clone20-Shn3RL, cherry-picked (AID 624133); assay type: functional
[14] = molecular target: T2, Delta-type opioid receptor (Homo sapiens, UniProt P41143); test: HTS Image-Based Screen for Antagonists of the DOR Receptor. [Related pubchem assays (depositor defined):AID1777, AID1785, AID1786, AID2133]; assay type: functional
Mu-type opioid receptor = Mu-type opioid receptor (Homo sapiens, UniProt P35372); test: HTS Image-Based Screen for Agonists of the MOR Receptor. [Related pubchem assays (depositor defined):AID1777, AID1785, AID1786, AID2133]; assay type: functional;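 note: imaging of beta-arrestin GFP recruitment into spots after receptor activation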
[15] = molecular target: T2, Delta-type opioid receptor; test: HTS Image-Based Screen for Agonists of the DOR Receptor. [Related pubchem assays (depositor defined):AID1777, AID1786, AID2133]; assay type: functional
[16] = molecular target: T3, Kappa-type opioid receptor (Homo sapiens, UniProt P41145); assay type: functional
Beta-galactosidase [17] = molecular target: T4, Beta-galactosidase (Escherichia coli, UniProt Q8VNN2); assay type: functional
[18] = molecular target: T3, Kappa-type opioid receptor; assay type: functional; remark: listed apart in the source
[19] = molecular target: Glucose-6-phosphate 1-dehydrogenase (Homo sapiens, UniProt P11413); test: human G6PD enzyme inhibitors, dose response, selectivity assay for P. falciparum G6PD inhibitor project, biochemical, fluorescence (AID 504792); assay type: functional
[20] = A cytotoxicity screen of small molecule inhibitors of the PhoP region in Salmonella typhi identified in the primary screen. [Related pubchem assays: 1850, 1864, 1985 ]; assay type: functional
[21] = inhibitors of intracellular T. cruzi replication, confirmation, NIH3T3 host cells, beta-gal luminescence (AID 2044); assay type: functional, cell-based;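 note: intracellular parasites grown in NIH/3T3 mouse fibroblasts as host cells; luminescent beta-galactosidase reporter signal from transgenic T. cruzi replicating inside host cells; inhibitors lower the luminescence signal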
[22] = cytotoxicity toward NIH3T3 fibroblasts, dose response, counter-screen, cell-based, ATP luminescence, mouse fibroblasts (AID 2010); assay type: functional;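 note: cells exposed to compound for about 90 hours before reading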
[23] = NIH-3T3 fibroblast cytotoxicity, dose response, cytotoxicity control, cell-based, fluorescence, Alamar Blue, secondary assay (AID 2327); assay type: functional;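 note: NIH-3T3 mouse fibroblasts cultured with fluconazole at 8 µg/mL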
Beta-galactosidase [24] = molecular target: T4, Beta-galactosidase; test: PubChem AID 485352; assay type: functional
Streptokinase A = molecular target: T5, Streptokinase A (Streptococcus pyogenes serotype M1, UniProt P10520); test: S. pyogenes streptokinase expression inhibitors, potency, dose response, plasminogen activation absorbance, OD405 (AID 1914); assay type: functional, Streptococcus pyogenes M1 GAS;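 note: secreted streptokinase activity via plasminogen activation per viability signal from cell pellet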
T5 sequence (P10520 whole entry): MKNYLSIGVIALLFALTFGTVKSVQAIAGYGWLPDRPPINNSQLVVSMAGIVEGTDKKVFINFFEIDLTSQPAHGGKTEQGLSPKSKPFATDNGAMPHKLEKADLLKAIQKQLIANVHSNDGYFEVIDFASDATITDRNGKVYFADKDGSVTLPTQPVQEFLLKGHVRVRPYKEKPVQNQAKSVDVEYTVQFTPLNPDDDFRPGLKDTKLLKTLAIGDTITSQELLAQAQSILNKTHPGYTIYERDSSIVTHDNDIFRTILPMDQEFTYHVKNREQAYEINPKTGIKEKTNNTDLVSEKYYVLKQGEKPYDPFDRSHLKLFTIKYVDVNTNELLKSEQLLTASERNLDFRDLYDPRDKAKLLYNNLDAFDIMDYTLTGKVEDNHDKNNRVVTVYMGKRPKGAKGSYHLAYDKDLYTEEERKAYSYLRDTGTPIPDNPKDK

[25] = C. albicans growth with fluconazole, confirmation, fluorescence, retest (AID 2467); assay type: functional, cell-based
[26] = molecular target: T6, Type-1 angiotensin II receptor (Homo sapiens, UniProt P30556); test: AT1 receptor antagonists, dose response, selectivity assay for APJ receptor antagonist project, cell-based, uHTS hits (AID 463214); assay type: functional;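 note: antagonist potency against angiotensin II stimulated AT1 response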
T6 sequence (P30556 whole entry): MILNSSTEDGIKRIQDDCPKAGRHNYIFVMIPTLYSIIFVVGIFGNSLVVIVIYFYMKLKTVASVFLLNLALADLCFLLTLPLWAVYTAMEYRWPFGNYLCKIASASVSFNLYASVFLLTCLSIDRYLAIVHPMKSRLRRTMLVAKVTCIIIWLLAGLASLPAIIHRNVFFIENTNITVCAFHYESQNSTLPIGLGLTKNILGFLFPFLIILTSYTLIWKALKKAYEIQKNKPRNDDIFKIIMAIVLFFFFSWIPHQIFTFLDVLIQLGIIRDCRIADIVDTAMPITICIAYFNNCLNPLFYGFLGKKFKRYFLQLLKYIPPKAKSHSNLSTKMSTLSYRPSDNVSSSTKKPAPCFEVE

Nonstructural protein 1 = Nonstructural protein 1 (Influenza A virus, UniProt Q194T2); assay type: functional, Influenza A virus (A/California/07/2009(H1N1))
[27] = molecular target: T7, Heat shock factor protein 1 (Mus musculus, UniProt P38532); test: HSF1 potentiators in luciferase reporter cells, confirmation, cell-based, NIH3T3, luminescence, dose retest (AID 435004); assay type: functional;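 note: stress induced by proteasome inhibitor MG132 added 30 min after compound; luciferase reporter driven by HSF1 response element in NIH3T3 cells; actives raise luminescence as potentiators of the MG132 stress response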
T7 sequence (P38532 whole entry): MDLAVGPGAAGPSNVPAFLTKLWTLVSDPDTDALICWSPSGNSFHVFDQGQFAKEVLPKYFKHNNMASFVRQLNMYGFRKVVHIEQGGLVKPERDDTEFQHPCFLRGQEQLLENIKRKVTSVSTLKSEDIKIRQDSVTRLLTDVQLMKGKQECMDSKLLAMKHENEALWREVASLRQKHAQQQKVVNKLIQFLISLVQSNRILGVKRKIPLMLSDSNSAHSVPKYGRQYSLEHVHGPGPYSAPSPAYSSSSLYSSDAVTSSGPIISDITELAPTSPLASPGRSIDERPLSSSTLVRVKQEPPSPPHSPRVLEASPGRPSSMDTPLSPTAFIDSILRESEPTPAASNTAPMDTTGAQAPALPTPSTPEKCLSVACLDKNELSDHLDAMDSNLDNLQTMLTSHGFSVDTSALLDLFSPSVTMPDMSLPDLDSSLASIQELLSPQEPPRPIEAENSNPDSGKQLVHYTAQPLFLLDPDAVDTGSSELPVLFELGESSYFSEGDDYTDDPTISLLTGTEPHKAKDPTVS

[28] = molecular target: Heat shock protein HSP 90-alpha (Homo sapiens, UniProt P07900); assay type: functional, organism-based
INS1 = test: beta cell apoptosis inhibitors, cytokine rescue, dose response, luminescence, retest (AID 449756); assay type: functional, cell-based; conditions: Rattus norvegicus;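 note: cell death triggered by IL-1 beta plus TNF-alpha plus IFN-gamma mixture; protective hits raise ATP signal compared with cytokine alone wells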
Vero [29] = test: cells; assay type: functional; conditions: Chlorocebus sabaeus
[30] = molecular target: Voltage-gated N-type calcium channel alpha-1B subunit/Amyloid beta A4 precursor protein-binding family A member 1 (Homo sapiens, UniProt Q00975+Q02410); test: disruptors of Mint-PDZ/N-type channel peptide interaction – biochemical, HTRF, set 2, SAR follow-up (AID 434980); assay type: functional

T3 sequence (P41145 whole entry): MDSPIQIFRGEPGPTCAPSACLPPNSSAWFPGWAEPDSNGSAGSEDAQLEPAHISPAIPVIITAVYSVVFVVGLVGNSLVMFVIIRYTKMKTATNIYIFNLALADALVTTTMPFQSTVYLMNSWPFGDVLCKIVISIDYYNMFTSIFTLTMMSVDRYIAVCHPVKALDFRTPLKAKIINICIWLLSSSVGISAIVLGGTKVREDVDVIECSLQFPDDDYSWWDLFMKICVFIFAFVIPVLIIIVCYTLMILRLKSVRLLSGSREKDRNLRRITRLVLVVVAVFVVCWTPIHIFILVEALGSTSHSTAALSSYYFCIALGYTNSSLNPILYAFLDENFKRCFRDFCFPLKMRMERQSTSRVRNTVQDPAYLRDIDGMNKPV
T4 sequence (Q8VNN2 whole entry): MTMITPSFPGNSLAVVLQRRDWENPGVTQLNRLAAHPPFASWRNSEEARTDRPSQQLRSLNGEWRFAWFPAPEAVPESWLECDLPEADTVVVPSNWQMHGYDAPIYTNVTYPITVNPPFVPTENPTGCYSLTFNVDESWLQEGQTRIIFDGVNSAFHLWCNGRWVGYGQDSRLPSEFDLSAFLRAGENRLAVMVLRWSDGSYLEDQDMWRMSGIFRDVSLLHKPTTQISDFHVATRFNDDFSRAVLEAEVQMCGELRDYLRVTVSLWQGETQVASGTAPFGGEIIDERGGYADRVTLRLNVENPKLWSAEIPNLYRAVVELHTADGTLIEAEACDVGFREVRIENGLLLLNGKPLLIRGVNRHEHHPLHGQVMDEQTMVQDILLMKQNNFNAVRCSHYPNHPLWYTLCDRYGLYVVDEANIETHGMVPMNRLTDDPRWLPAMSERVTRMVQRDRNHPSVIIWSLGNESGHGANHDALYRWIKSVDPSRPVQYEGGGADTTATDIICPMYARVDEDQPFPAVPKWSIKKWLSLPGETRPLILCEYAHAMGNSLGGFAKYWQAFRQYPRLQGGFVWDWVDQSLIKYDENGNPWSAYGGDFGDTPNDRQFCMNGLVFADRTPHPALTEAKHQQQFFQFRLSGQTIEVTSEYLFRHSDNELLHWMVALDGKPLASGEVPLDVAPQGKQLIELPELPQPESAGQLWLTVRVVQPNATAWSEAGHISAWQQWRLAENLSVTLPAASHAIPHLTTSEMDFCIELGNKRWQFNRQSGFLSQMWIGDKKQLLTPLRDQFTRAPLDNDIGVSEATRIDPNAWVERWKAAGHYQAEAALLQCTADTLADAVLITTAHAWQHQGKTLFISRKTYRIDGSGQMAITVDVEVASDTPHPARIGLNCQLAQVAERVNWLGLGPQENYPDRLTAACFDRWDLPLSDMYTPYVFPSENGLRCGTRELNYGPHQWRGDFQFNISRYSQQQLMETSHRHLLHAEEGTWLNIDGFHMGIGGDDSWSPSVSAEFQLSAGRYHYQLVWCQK
T2 sequence (P41143 whole entry): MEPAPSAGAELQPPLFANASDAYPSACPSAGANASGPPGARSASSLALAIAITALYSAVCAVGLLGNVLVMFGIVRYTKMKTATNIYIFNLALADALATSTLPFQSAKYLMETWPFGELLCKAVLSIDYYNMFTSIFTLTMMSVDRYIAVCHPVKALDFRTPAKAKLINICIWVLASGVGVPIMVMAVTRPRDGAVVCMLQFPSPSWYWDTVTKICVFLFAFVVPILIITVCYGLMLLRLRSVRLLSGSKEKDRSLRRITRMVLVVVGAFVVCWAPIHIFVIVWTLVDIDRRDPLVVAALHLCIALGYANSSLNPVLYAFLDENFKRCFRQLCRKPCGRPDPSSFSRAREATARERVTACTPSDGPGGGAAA
Mu-type opioid receptor, sequence (P35372 whole entry): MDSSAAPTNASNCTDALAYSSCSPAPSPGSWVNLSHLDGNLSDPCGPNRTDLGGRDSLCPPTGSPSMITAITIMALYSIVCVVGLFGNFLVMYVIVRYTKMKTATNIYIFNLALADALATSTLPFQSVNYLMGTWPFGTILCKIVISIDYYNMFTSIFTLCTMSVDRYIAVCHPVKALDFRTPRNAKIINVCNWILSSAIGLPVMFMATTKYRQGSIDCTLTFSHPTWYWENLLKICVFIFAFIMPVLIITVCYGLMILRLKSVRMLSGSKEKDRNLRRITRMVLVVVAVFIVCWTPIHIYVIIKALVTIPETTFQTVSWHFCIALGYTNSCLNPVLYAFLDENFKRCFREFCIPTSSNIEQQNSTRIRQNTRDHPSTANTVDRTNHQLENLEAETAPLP
X-box-binding protein 1, sequence (P17861 whole entry): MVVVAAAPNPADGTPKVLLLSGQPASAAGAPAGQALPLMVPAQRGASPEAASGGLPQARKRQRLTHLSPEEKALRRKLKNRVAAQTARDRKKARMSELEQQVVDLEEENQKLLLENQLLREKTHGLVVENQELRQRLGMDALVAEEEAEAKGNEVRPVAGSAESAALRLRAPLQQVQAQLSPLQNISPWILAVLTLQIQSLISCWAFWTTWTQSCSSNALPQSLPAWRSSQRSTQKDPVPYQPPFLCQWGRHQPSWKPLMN
Cytochrome P450 2C19, sequence (P33261 whole entry): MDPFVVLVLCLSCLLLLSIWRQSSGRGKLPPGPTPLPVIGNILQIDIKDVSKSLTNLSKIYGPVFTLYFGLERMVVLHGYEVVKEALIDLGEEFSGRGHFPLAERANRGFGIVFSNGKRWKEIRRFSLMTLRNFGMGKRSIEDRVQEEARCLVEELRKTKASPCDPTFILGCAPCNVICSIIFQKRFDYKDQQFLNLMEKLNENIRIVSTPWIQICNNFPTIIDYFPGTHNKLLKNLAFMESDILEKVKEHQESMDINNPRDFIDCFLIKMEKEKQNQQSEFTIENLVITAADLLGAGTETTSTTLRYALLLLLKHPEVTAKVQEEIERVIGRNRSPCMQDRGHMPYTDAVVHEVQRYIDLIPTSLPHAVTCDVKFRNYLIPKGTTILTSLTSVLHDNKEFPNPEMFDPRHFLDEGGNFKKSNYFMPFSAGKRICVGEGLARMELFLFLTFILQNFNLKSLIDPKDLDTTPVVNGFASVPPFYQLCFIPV
NACHT, LRR and PYD domains-containing protein 1, sequence (Q9C000 1-1212 limits assumed): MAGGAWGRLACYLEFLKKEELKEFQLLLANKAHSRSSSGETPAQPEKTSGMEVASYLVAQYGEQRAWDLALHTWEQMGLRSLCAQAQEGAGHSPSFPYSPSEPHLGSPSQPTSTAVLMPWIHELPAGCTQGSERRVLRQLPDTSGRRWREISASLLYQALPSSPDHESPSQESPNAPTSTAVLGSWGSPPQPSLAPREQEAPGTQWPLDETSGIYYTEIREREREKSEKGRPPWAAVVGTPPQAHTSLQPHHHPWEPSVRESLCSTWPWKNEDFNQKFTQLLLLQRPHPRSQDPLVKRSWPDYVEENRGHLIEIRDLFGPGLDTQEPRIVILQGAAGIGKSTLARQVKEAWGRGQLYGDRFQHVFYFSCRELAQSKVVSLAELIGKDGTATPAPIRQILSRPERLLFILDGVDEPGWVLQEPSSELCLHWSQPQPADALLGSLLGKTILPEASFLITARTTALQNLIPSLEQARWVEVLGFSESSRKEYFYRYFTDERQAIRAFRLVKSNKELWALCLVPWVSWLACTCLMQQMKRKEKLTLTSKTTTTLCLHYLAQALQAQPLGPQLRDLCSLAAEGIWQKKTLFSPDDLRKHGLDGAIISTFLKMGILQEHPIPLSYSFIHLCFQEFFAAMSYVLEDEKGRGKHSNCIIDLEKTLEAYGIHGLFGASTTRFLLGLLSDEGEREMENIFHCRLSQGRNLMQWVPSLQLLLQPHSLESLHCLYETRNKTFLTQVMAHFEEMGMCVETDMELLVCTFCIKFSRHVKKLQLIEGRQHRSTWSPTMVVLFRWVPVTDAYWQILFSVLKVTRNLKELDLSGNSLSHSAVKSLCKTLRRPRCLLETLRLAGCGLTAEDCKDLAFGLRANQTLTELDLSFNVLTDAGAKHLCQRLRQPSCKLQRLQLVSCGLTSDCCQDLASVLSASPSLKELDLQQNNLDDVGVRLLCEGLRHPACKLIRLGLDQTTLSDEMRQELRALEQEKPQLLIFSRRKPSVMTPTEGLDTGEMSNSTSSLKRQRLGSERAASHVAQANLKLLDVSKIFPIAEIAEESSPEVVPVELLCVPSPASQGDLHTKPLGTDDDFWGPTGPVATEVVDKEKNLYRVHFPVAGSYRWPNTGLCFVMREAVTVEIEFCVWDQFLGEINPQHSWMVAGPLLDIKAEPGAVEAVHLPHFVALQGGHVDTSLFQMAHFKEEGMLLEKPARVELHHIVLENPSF
NACHT, LRR and PYD domains-containing protein 1, sequence (Q9C000 1213-1473 limits assumed): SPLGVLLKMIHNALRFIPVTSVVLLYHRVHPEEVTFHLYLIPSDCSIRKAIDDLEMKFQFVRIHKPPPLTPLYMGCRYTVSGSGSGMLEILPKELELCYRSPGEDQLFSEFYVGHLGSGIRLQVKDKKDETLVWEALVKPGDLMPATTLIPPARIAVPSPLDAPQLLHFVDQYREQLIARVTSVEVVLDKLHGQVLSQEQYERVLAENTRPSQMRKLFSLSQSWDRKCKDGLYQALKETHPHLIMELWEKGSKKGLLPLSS
Nonstructural protein 1, sequence (Q194T2 whole entry): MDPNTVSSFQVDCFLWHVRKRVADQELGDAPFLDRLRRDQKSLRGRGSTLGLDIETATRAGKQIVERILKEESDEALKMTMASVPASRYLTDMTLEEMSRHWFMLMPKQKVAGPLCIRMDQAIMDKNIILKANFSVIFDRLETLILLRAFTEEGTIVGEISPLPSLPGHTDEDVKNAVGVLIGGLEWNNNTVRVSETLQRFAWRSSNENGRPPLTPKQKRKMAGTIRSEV

O=C(COC(=O)C1CC(=O)N(Cc2ccccc2)C1)Nc1ccc(Cl)cc1F (configuration not stated)
EC50 [1]: > 100 µM (not active)

CCOC(=O)c1[nH]c2ccc(Cl)cc2c1-c1ccccc1
Absolute IC50 (XBP1) (X-box-binding protein 1): 10 µM
AC50 (Cytochrome P450 2C19): 4.47 µM (inconclusive)

Fc1cccc2sc(Nc3nnc(-c4ccccc4)o3)nc12
EC50 [2]: 2 µM (active)
EC50 [1]: 44.2 µM (active)
EC50 (Streptococcus): 6.97 µM (active)
CC50 (Vero [3]): 27 µM (active)
IC50 (Genome polyprotein): 50.2 µM (active)

CC(C)NC(=O)CCCOc1ccc(Cl)cc1Cl
IC50 (Saccharomyces cerevisiae): 35.8 µM (active)
IC50 [4]: 40 µM (active)

CCOc1cccc(CNCCc2c(C)[nH]c3ccc(OC(F)(F)F)cc23)c1O
EC50 [5]: > 120 µM (not active)
EC50 [6]: 17.2 µM (active)
EC50 [7]: 11.2 µM (active)
CC50 [8]: 6.17 µM (active)
CC50 [9]: 5.75 µM (active)
CC50 [10]: 9.94 µM (active)
IC50 (cells): 10.5 µM (active)
AC50 [11]: 0.611 µM (active)
AC50 [12]: 8.24 µM (active)
AC50 [13]: 18.1 µM (active)

CC1CCc2c(nc3sc4c(c3c2N)CCCC4)C1 (configuration not stated)
IC50 [14]: > 32 µM (inactive)
EC50 (Mu-type opioid receptor): > 32 µM (inactive)
EC50 [15]: > 32 µM (inactive)
IC50 [16]: 2.2 µM (active)
EC50 (Beta-galactosidase [17]): > 31.5 µM (inactive)
IC50 [18]: > 32 µM
IC50 [19]: > 80 µM (inactive)

Clc1ccc2[nH]c(N3CCCCC3)nc2c1
EC50 [20]: > 50 µM (active)

COc1ccc(-c2nnc(NC(=O)c3ccc(S(=O)(=O)N4COCC4(C)C)cc3)o2)cc1
EC50 [21]: 2.09 µM (active)
EC50 [22]: 7.83 µM (active)
CC50 [8]: 7.22 µM (active)
CC50 [9]: 8.49 µM (active)
CC50 [10]: 6.01 µM (active)
IC50 (cells): 6.25 µM (active)

Cc1ccc(C2CC(=O)NC(SCCC(C)C)=C2C#N)cc1 (configuration not stated)
EC50 [20]: > 50 µM (active)

Oc1cc(CSc2ccc(Cl)cc2)nc(-c2ccccn2)n1
EC50 [23]: 9.84 µM (active)
IC50 [14]: > 32 µM (inactive)
EC50 (Mu-type opioid receptor): > 32 µM (inactive)
EC50 [2]: 0.489 µM (active)
EC50 [15]: > 32 µM (inactive)
EC50 (Beta-galactosidase [24]): > 40 µM (inactive)
EC50 (Streptokinase A): > 150 µM (not active)
EC50 [25]: 0.1 µM (active)
EC50 [21]: 0.549 µM (active)
IC50 [26]: 13 µM (active)
IC50 [16]: 4.86 µM (active)
EC50 [22]: 5.92 µM (active)
EC50 (Beta-galactosidase [17]): > 31.5 µM (inactive)
IC50 [18]: > 32 µM
EC50 (Streptococcus): 6.82 µM (active)
IC50 (Nonstructural protein 1): 14.4 µM (active)
EC50 [27]: 5.93 µM (active)
AC50 [28]: 23.3 µM (active)
AC50 (INS1): 2.74 µM (active)
CC50 (Vero [29]): 5.82 µM (active)

CCOc1cc(S(=O)(=O)Nc2cc(C)cc(C)c2)ccc1Cl
Absolute IC50 (XBP1) (X-box-binding protein 1): 10 µM

O=C(c1cc(-c2ccco2)nc2ccccc12)N1CCC(CO)CC1
IC50 [30]: > 56.8 µM (inactive)
